The values that follow come from patent US6416738B1, “Pretargeting methods and compounds” (NeoRx Corporation, priority 1973, dated 2002).

Ends that are not written are not given here.

A short description of series [1]: Time dependent cleavage of DOTA-biotin conjugates in serum (% avidin binding). Type of series: in vitro ADME. An excerpt: The difference in serum stability between DOTA-LC-biotin and DOTA-SC-biotin might be explained by the fact that the SC derivative contains an aromatic amide linkage in contrast to the aliphatic amide linkage of the LC derivative, with the aliphatic amide linkage being more readily recognized by enzymes as a substrate therefor. This argument cannot apply to biotinidase, however, because biotinidase very efficiently cleaves aromatic amides. In fact, it is recognized that the simplest and most commonly employed biotinidase activity measuring method uses N-(d-biotinyl)-4-aminobenzoate (BPABA) as a substrate, with the hydrolysis of BPABA resulting in the liberation of biotin and 4-aminobenzoate (PABA). See, for example, B. Wolf, et al., “Methods in Enzymology,” pp. 103-111, Academic Press Inc., 1990. Consequently, one would predict that DOTA-SC-biotin, like its LC counterpart, would be a biotinidase substrate. […] A series of DOTA-biotin conjugates was therefore synthesized by the present inventors to determine which structural features conferred serum stability to the conjugates.

Series [2] has as its system LS-180 tumor xenografts. In words: Tumor uptake of PIP-biocytin after NR-LU-10-streptavidin. Type of series: in vivo, nude mice. How it is done:
The following data are based on experimentation with tumored nude mice (100 mg LS-180 tumor xenografts implanted subcutaneously 7 days prior to study) that received, at time 0, 200 μg of I-125 labeled NR-LU-10-Streptavidin conjugate (950 pmol), as discussed in Example XI above. At 24 hours, the mice received an i.v. injection of PIP-I-131-biocytin (40 μCi) and an amount of cold carrier PIP-I-127 biocytin corresponding to doses of 42 μg (69,767 pmol), 21 μg (34,884 pmol), 5.7 μg (9468 pmol), 2.85 μg (4734 pmol) or 0.5 μg (830 pmol).

For series [3], the system named is LS-180 tumor xenografts. In words: Two-step pretargeting with NR-LU-10-avidin and 131I-PIP-biocytin. Type of series: in vivo, nude mice. The following applies: 200 μg NR-LU-10-avidin at t=0, 42 μg 131I-PIP-biocytin at t=36 h. How it is done: ^131I-PIP-biocytin was evaluated in a two-step pretargeting procedure in tumor-bearing mice. […] At t=0, the mice were injected with 200 μg of NR-LU-10-avidin conjugate labeled with ^125I using PIP-NHS (see Example IV.A.). At t=36 h, the mice received 42 μg of ^131I-PIP-biocytin. […] The described radiohalogenated biotin compounds are amenable to the same types of modifications described in Example VI above for ^186Re-chelate-biotin conjugates. In particular, the following PIP-polylysine-biotin molecule is made by trace labeling polylysine with ^125I-PIP, followed by extensive biotinylation of the polylysine. [drawing 47]

The next series deals with LS-180 tumor. In words: Two-step pretargeting in LS-180 animal model.
Series [4] in a line: Excretion of neutral MAMA chelate-biotin conjugate. As to conditions: in vivo. The source says:
Although the net overall charge of the conjugate is neutral, the polycarboxylate nature of the molecule generates regions of hydrophilicity and hydrophobicity. By altering the number and nature of the carboxylate groups within the conjugate, excretion may be shifted from kidney to gastrointestinal routes. For instance, neutral compounds are generally cleared by the kidneys; anionic compounds are generally cleared through the GI system.

Series [5] relates to LS-180 human colon tumor xenografts. In words: Three-step pretargeting in LS-180 xenograft model. As to conditions: for tumor uptake: antibody at time 0, avidin at 24 h. An excerpt:
The experimental protocol was as follows:
The three radiolabels employed in this protocol are capable of detection in the presence of each other. It is also noteworthy that the sizes of the three elements involved are logarithmically different—antibody≅150,000; avidin≅66,000; and biotin≅1,000.

For series [6], the target named is T1, Streptavidin-agarose beads (Streptomyces avidinii, UniProt P22629).
T1 construct: purchased Sigma S-1638
T1 sequence (P22629 25-183): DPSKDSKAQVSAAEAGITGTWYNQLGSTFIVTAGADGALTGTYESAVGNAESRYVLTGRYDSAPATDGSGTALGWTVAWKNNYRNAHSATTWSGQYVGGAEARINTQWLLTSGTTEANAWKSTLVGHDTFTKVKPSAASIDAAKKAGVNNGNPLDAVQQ
In words: Streptavidin-agarose bead binding. As to conditions: for Pellet: radioactivity bound to streptavidin-agarose beads; for Supernatant: radioactivity not bound to streptavidin-agarose beads. The protocol:
100 μl of 0.2 M sodium carbonate buffer, pH 9.2, was added to 2 mg (in 1.00 ml PBS) of PIP-125-labeled orosomucoid and to 2 mg PIP-125-labeled asialoorosomucoid. 60 μl of a 1.85 mg/ml solution of NHS-amino caproate biotin in DMSO was then added to each compound. The reaction mixtures were vortexed and allowed to sit at room temperature for 45 minutes. The material was purified by size exclusion column chromatography (PD-10, Pharmacia) and eluted with PBS. 1.2 ml fractions were taken, with fractions 4 and 5 containing the majority of the applied radioactivity (>95%). Streptavidin-agarose beads (Sigma S-1638) or -pellets were washed with PBS, and 20 μg of each biotinylated, radiolabeled protein was added to 400 μl of beads and 400 μl of PBS, vortexed for 20 seconds and centrifuged at 14,000 rpm for 5 minutes. The supernatant was removed and the pellets were washed with 400 μl PBS. This wash procedure was repeated twice more, and the combined supernatants were assayed by placing them in a dosimeter versus their respective pellets.

Series [7] in a line: Blood clearance and limited biodistribution of orosomucoid and asialoorosomucoid. The following applies: for blood level: I-125-labeled protein i.v.
Description: The asialoorosomucoid and orosomucoid starting material were radiolabeled with I-125 using PIP technology, as described in Example IV above.
In addition, two animals receiving each compound were sacrificed at 5 minutes post-administration and limited biodistributions were performed.
In another series the test system is HA peptide. The following applies: physiological conditions, concentrations as low as 10^−13 M; cited from earlier work.

Regarding `O=C(CCCCC1SCC2NC(=O)NC21)NCCCC[C@H](NC(=O)c1ccc([125I])cc1)C(=O)O` (some centres unmarked) [PIP-Biocytin, p-[I-125]iodobenzoylbiocytin], the “% Avidin Binding” value in [1] (5 Minutes at 37° C.) is recorded as 75%; in series [1] (15 Minutes at 37° C.) it was 57%; in [1] (30 Minutes at 37° C.), 31%. The peak tumor uptake is 85.0 % ID/G in the series on LS-180 tumor xenografts [2] (0.5 μg dose, 120 hour time point (96 hours after PIP-biocytin)) and “about 700 pMOL/G” in the series with LS-180 tumor (45 hours post-LU-10-StrAv administration). In addition, the tumor localization entry with LS-180 tumor xenografts [2] (three highest doses (42, 21, 5.7 μg), 4 hours after PIP-biocytin injection) is “about 600 pmol/g”. In addition, the “131I-PIP-biocytin molecules per avidin molecule at tumor” value in the series with LS-180 tumor xenografts [3] is given as “≈ 1.5”. In the series on LS-180 tumor (40 hour time point, PIP-BT at 37 hours following LU-10-StrAv), the tumor uptake entry was “above 500 pMOL/G”.

For the compound `O=C(O)CN1CCN(CCOO)CCN(CCOO)CCN(CC(=O)O)C(Cc2ccc(NC(=O)CCCCC3SCC4NC(=O)NC43)cc2)C1` (centres unmarked) [Y-90-SC DOTA-Biotin, metal not drawn], the “% Avidin Binding” value in series [1] (20 Hours at 37° C.) is 60%; in series [1] (60 Minutes at 37° C.) it was 98%. For the same compound, in series [1] (in comparison to DOTA-LC-biotin), the serum stability result is reported as “significantly improved serum stability”.

With `CN(CCSCc1ccccc1)CC(CCC(=O)NCCNC(=O)CC1SCC2NC(=O)NC21)NC(=O)CS` (centres unmarked) [neutral MAMA chelate-biotin conjugate], the kidney excretion result in series [4] is given as “superior kidney excretion”.

In the case of “Avidin: avidin (MW≈66 kD), radiolabeled with 131I/PIP-NHS”, the tumor uptake entry in series [5] (at 25 h) was “about 250 pmol/g”; in series [5] (at 32 h), about 150 pmol/g; in series [5] (at 48 h) it was about 50 pmol/g; in series [5] (at 120 h) it was about 0 pmol/g. The “injected dose cleared from the blood” value in series [5] (mouse, in vivo) is on record as “greater than 90%”.

Turning to “asialoorosomucoid: orosomucoid treated with neuraminidase”, in series [6], the Pellet is listed as 8.0% and the Supernatant was determined as 92%. In addition, in [7] (5 minutes post-administration), the “uptake in the liver” value is on record as 86% and the blood level turned out to be 0.4%. Further, the blood clearance result in series [7] (5 minutes to 4 hours post-administration) is on record as “clearing more rapidly than its orosomucoid counterpart”.

On to “orosomucoid: human alpha-1 acid glycoprotein [reference compound]”, for which, in series [6], the Pellet is recorded as 10% and the Supernatant is reported as 90%. The compound also had a blood level in series [7] (5 minutes post-administration) of 78%.

“pGlu-Pto-Pro-Gly-Gly-Ser-Lys-Val-Ile-Leu-Phe (PGGSKVILF; not fully specified (N-terminus); printed as pGlu-Pto-Pro-Gly-Gly-Ser-Lys-Val-Ile-Leu-Phe) [HA peptide]”: the “dissociation of HA dimer into monomers” value in the series on HA peptide was “does not dissociate into monomers”.
